This is an account of results in a melting point compilation (Tetko et al.).

Starred links: 1 amine or outer side, 2 acyl side, 3 side chain; linkers in the order of their positions; H or OH if unused. Non-standard residues stand in square brackets, D forms with d. Residues, ends and D or L forms follow the SMILES beside them. *: point of attachment. Phe(2-Me) = Cc1ccccc1C[CH](N)C(=O)O; X2 = CC(F)(F)CC(N[*:1])C(=O)[*:2]; Suc = O=C(CCC(=O)[*:2])[*:1]; Tle = CC(C)(C)[CH](N)C(=O)O; Cbz = O=C(OCc1ccccc1)*; Boc = CC(C)(C)OC(=O)*; Bn = c1ccc(C*)cc1 Bounds are passed on as bounds.

Regarding `O=C(Cl)C(F)(F)F`, the melting point (usually the temperature, or range, at which the solid turns liquid) was -146 °C.

In turn, `COC(=O)C(CCNC(=O)c1ccccc1C(=O)O)Oc1c(Br)cc(-c2ccc(-c3c(Cc4ccccc4)sc4ccccc34)cc2)cc1Br` (configuration not stated) showed a melting point of 95 to 97 °C.

Consider `O=C(Oc1c(I)cc(I)cc1I)C(F)(F)C(F)(F)C(F)(F)C(F)(F)C(F)(F)C(F)(F)F`, for which the melting point fell in the range of 71 to 73 °C.

Take `CC(NC(=O)C(Cc1ccc(OCc2ccccc2)cc1)NC(=O)C(COCc1ccccc1)NC(=O)C(Cc1c[nH]c2ccccc12)NC(=O)OC(C)(C)C)C(=O)O` (configuration not stated) (Boc-WS(Bn)Y(Bn)A-OH; configuration not given here): the melting point is 93 to 94 °C.

As for `CCOC(=O)C1=C(COCC(O)C(O)COCC2=C(C(=O)OCC)C(c3ccccc3Cl)C(C(=O)OC)=C(C)N2)NC(C)=C(C(=O)OC)C1c1ccccc1Cl` (configuration not stated), the melting point was 76.5 to 78 °C.

In the case of `[C-]#[N+]C1(C)CN(C(=O)Nc2ccc(C(F)(F)F)cc2)N=C1c1ccc(Cl)cc1` (configuration not stated), the melting point lay within 171 to 173 °C.

For the compound `Brc1cc(C(Br)(Br)C(Br)(Br)C(Br)(Br)c2ccccc2)c(Br)c(Br)c1Br`, the melting point is 309 to 311 °C.

The compound `COc1ccc(C(CCCC(C(=O)C(CCCC(c2ccc(OC)c(OC)c2)N2C(=O)c3ccccc3C2=O)N2C(=O)c3ccccc3C2=O)N2C(=O)c3ccccc3C2=O)N2C(=O)c3ccccc3C2=O)cc1OC` (configuration not stated) came in with a melting point of 195 °C.

With `C=C(C)[C@@H]1CC[C@]2(C(=O)N[C@H]3C[C@@H](C(=O)N4CCCCC4)C3(C)C)CC[C@]3(C)[C@H](CC[C@@H]4[C@@]5(C)CC[C@H](OC(=O)[C@@H]6C[C@H](C(=O)O)C6(C)C)C(C)(C)[C@@H]5CC[C@]43C)[C@@H]12`, the melting point lay in the range of 258 to 269 °C.

In turn, `O=c1cc(-c2ccc(OCCOCCOCCOCCOCCOCCOCCOCCOCCOc3ccc(-c4cc(=O)c5c(O)cc(O)cc5o4)cc3)cc2)oc2cc(O)cc(O)c12` gave a melting point of 135 to 137 °C.

Turning to `O=[N+]([O-])c1ccc2cn[nH]c(=S)c2c1`, the melting point fell in the range of 233 to 234 °C.

For the compound `CCOC(=O)c1cnc2c(c(C)nn2C)c1NCS(=O)(=O)c1ccc(Oc2ccc(Cl)cc2)cc1`, the melting point lay within 52 to 55 °C.

Turning to `O=C(NCCCCCCCCCCCCNC(=O)C(O)C(O)C(OC1OC(CO)C(O)C(O)C1O)C(O)CO)C(O)C(O)C(OC1OC(CO)C(O)C(O)C1O)C(O)CO` (configuration not stated), the melting point is 79 to 81 °C.

Take `CCCCCCCCCCCCCCCCCCOc1ccc(OCCCOc2ccc(OCc3ccccc3)cc2)c(C(=O)N(CC(=O)OCC)CC(=O)OCC)c1`: the melting point lay in the range of 54 to 55 °C.

As for `CCC(Br)=C1NC(=O)N(C(C(=O)Nc2cc(NC(=O)C(CC)Oc3ccc(C(C)(C)CC)cc3C(C)(C)CC)ccc2Cl)C(=O)c2ccc(OC)cc2)C1=O` (configuration not stated), the melting point is 112 to 114 °C.

`O=C(Oc1c(I)cc(I)c(Br)c1I)C(F)(F)C(F)(Br)C(F)(F)Br` (configuration not stated) gave a melting point of 56 to 57 °C.

For the compound `CC(=O)N(CC(CO)(CO)CN(Oc1c(I)c(C(=O)N(CCO)CCO)c(I)c(C(=O)N(CCO)CCO)c1I)C(C)=O)Oc1c(I)c(C(=O)N(CCO)CCO)c(I)c(C(=O)N(CCO)CCO)c1I`, the melting point worked out at 198 °C.

Compound `CC(C)[Si](OC(=O)C(Cc1cc(I)c(Oc2cc(I)c(OCC3CO3)c(I)c2)c(I)c1)NC(=O)OC(C)(C)C)(C(C)C)C(C)C` (configuration not stated) had a melting point of 109 °C.

Regarding `[C-]#[N+]c1c(C)cccc1C(C)(C)C`, the melting point is 60 to 62 °C.

With `Cc1cc(C(C)(C)C)c(O)c(C)c1CCCCCCCCCCCCCCCCCCCOCCCCCCCCCCCCCCCCCCCc1c(C)cc(C(C)(C)C)c(O)c1C`, the melting point worked out at 52 °C.

In turn, `Cc1ccc2cccc(OCc3c(Cl)ccc(S(=O)(=O)N4CCC[C@H]4C(=O)NC4CCN(C(=O)CCCN(C=NC(=O)OC(C)(C)C)NC(=O)OC(C)(C)C)CC4)c3Cl)c2n1` showed a melting point of 102 to 105 °C.

The compound `CN=S(=O)(Cc1ccc(C(F)(F)F)nc1)c1nc(-c2ccc(OC)cc2)cs1` (configuration not stated) showed a melting point of 158 to 161 °C.

As for `CC(C)CCCC(C)C1CCC2C3CC=C4CC(N(CCCNC(=O)CCNC(=O)CCCCCNc5ccc([N+](=O)[O-])c6nonc56)S(=O)(=O)c5ccccc5[N+](=O)[O-])CCC4(C)C3CCC12C` (configuration not stated), the melting point fell in the range of 86 to 89 °C.

In the case of `CC(C)(C)c1cc(CCC(=O)OC2C(C)(C)C(OC(=O)CCc3cc(C(C)(C)C)c(O)c(C(C)(C)C)c3)C(C)(C)C(OC(=O)CCc3cc(C(C)(C)C)c(O)c(C(C)(C)C)c3)C2(C)C)cc(C(C)(C)C)c1O` (configuration not stated), the melting point lay in the range of 105 to 115 °C.

In turn, `CC(C)[C@H](NC(=O)N(C)Cc1ccccn1)C(=O)N[C@@H](Cc1ccccc1)C[C@H](OC(=O)CN(C)C)[C@H](Cc1ccccc1)NC(=O)[C@@H](NC(=O)N(C)Cc1ccccn1)C(C)C` returned a melting point of 109 to 111 °C.

Compound `Cc1ccccc1CC(NC(=O)C(CCC(=O)O)NC(=O)C(CC(=O)O)NC(=O)CCC(=O)O)C(=O)NC(C(=O)NC(CC(C)C)C(=O)NC(C=O)CC(C)(F)F)C(C)(C)C` (configuration not stated) (Suc-DE[Phe(2-Me)][Tle]L[X2]-aldehyde; configuration not given here) returned a melting point of 128 to 130 °C.

Compound `CN=S(=O)(c1nc(-c2ccc(F)cc2)cs1)C(C)c1ccc(C(F)(F)F)nc1` (configuration not stated) displayed a melting point of 89 to 94 °C.

In turn, `CCC(C)(C)c1ccc(OCC(=O)Nc2cccc(C(=O)Nc3[nH]n(-c4c(Cl)cc(Cl)cc4Cl)c(=O)c3OC(=O)Nc3ccccc3)c2)c(C(C)(C)CC)c1` registered a melting point of 72 to 77 °C.

As to `CCn1cc(C(=O)N[C@@H]2C(=O)N[C@@H]2C(=O)OC)c(=O)c2ccc(C)nc21` (relative stereo), the melting point was 223 to 224 °C.

In turn, `Cc1c(NC(=O)c2cccc(OCC(=O)NCCNC(=O)COc3cccc(C(=O)O)c3)c2)c2ccccn2c1C(=O)c1ccc(NC(=O)C(F)(F)F)c(C(=O)OCc2ccccc2)c1` displayed a melting point of 197 °C.

`O=[N+]([O-])c1ccccc1N1CCc2cc(Br)ccc21` had a melting point of 112 to 114 °C.

In turn, `Cc1ccc(C(=O)OCCN(C)C)cc1-n1c(C)cc(OCc2ccc(F)cc2CNC(=O)Nc2cc(C(C)(C)C)nn2-c2cccc(OCCO)c2)c(Cl)c1=O` had a melting point of 158 to 160 °C.

In the case of `CCC(C)(C)c1ccc(OCC(=O)Nc2cccc(C(=O)Nc3[nH]n(-c4c(Cl)cc(Cl)cc4Cl)c(=O)c3-n3nnn(-c4ccccc4)c3=S)c2)c(C(C)(C)CC)c1`, the melting point lay in the range of 169 to 171 °C.

`O=C(O)Cc1cccc(-c2cc(CCCCc3ccc(OC4OC(CO)C(O)C(O)C4O)c(-c4cccc(CC(=O)O)c4)c3)ccc2OC2OC(CO)C(O)C(O)C2O)c1` (configuration not stated) came in with a melting point of 195 to 197 °C.

The compound `CCCCCCCCCCCCN1C(=O)NC2(CC(C)(C)N(CC(O)COc3ccc(C(C)(C)c4ccc(OCC(O)CN5C(C)(C)CC6(CC5(C)C)NC(=O)N(CCCCCCCCCCCC)C6=O)cc4)cc3)C(C)(C)C2)C1=O` (configuration not stated) had a melting point of 159 to 161 °C.

For the compound `CCOCc1nc(C(C)(C)O)c(C(=O)OCc2oc(=O)oc2C)n1Cc1ccc(-c2ccccc2-c2nnnn2C(c2ccccc2)(c2ccccc2)c2ccccc2)cc1`, the melting point was 129 to 130 °C.

Turning to `CCCCCCCCCCOc1c(-c2nc3ccccc3s2)sc(-c2sc(-c3nc4ccccc4s3)c(OCCCCCCCCCC)c2OCCCCCCCCCC)c1OCCCCCCCCCC`, the melting point lay within 93.9 to 95 °C.

`CCc1nc(C)c(C(=O)OCOC(=O)C(C)(C)C)n1Cc1ccc2oc(-c3ccccc3-c3nnn(C(c4ccccc4)(c4ccccc4)c4ccccc4)n3)c(Br)c2c1`: the melting point is 51 to 53 °C.

In the case of `Cc1c(C2=CC(c3c(C)n(Cc4ccc(Cl)cc4)c4ccc([N+](=O)[O-])cc34)(c3c(C)n(Cc4ccc(Cl)cc4)c4ccc([N+](=O)[O-])cc34)OC2=O)c2cc([N+](=O)[O-])ccc2n1Cc1ccc(Cl)cc1`, the melting point lay within 227 to 228 °C.

In turn, `[C-]#[N+]C1Cc2ccccc2C(=C)c2ccccc21` (configuration not stated) yielded a melting point of 96 to 98 °C.

As to `Cc1cccc(-c2sc(N)nc2-c2ccc([N+](=O)[O-])c(O)c2)n1`, the melting point was 260 to 262 °C.

In the case of `CCCCCCCCCCCCCCCC(=O)C(O)C(O)(C(=O)c1cccc(NC(=O)C(CS)Cc2ccccc2)c1)C(O)C(=O)CCCCCCCCCCCCCCC` (configuration not stated), the melting point is 66 to 68 °C.

Consider `OP(=S)(C(F)(F)C(F)(F)C(F)(F)C(F)(F)C(F)(F)C(F)(F)C(F)(C(F)(F)F)C(F)(F)F)C(F)(F)C(F)(F)C(F)(F)C(F)(F)C(F)(F)C(F)(F)C(F)(C(F)(F)F)C(F)(F)F`, for which the melting point is above 300 °C.

`CCCCCCCCCCCCNC(=O)c1cccc(Sc2c(Nc3cc(C(=O)NCCCCCCCCCCCC)ccc3Cl)nn(-c3c(Cl)cc(Cl)cc3Cl)c2OS(=O)(=O)c2ccccc2)c1` showed a melting point of 112 to 114 °C.

The compound `CN(C)CCCN1c2ccccc2Sc2ccc(Cl)cc21` displayed a melting point of 57 °C.

In turn, `CCC(O)C=CC=CC=CC(=O)OCC1OC(OC2C(CO)OC3(OCc4cc(O)cc(O)c43)C(O)C2OC(=O)C=CC=CCC(O)C(C)=CC=CCCC(C)CC)C(O)C(O)C1O` (configuration not stated) came in with a melting point of 193 to 197 °C.

Regarding `CC(C)(C)OC(=O)NC(Cc1cc(I)c(Oc2cc(I)c(OCC3CO3)c(I)c2)c(I)c1)C(=O)OCC1CO1` (configuration not stated), the melting point is 105 °C.

For the compound `Brc1ccc2c(c1)C(CCCCCCCCCCn1c3ccccc3c3ccccc31)(CCCCCCCCCCn1c3ccccc3c3ccccc31)c1cc(Br)ccc1-2`, the melting point was in the range of 94 to 96 °C.

Consider `CCCCCCCCCCS(=O)(=O)c1c(S(=O)(=O)CCCCCCCCCC)c(S(=O)(=O)CCCCCCCCCC)c(S(=O)(=O)CCCCCCCCCC)c(S(=O)(=O)CCCCCCCCCC)c1S(=O)(=O)CCCCCCCCCC`, for which the melting point stood at 76 °C.

Compound `COC(=O)C(CC(C)C)NC(=O)C(Cc1ccccc1)NC(=O)C(Cc1ccc(O)cc1)NC(=O)C(CO)NC(=O)C(Cc1c[nH]c2ccccc12)NC(=O)OCc1ccccc1` (configuration not stated) (Cbz-WSYFL-OMe; configuration not given here) showed a melting point of 221 to 223 °C.

`CCC1(CC)c2cc(-c3nc4ccccc4s3)ccc2-c2ccc(C(CCCCCN)c3ccc4c(c3)C(CC)(CC)c3cc(-c5nc6ccccc6s5)ccc3-4)cc21` showed a melting point of 108 to 109 °C.

In the case of `Cc1ccc(S(=O)(=O)N2CCN(S(=O)(=O)c3ccc(C)cc3)CC(Cc3ccc(O)cc3)N(S(=O)(=O)c3ccc(C)cc3)N(S(=O)(=O)c3ccc(C)cc3)CC2)cc1` (configuration not stated), the melting point is 192 to 193 °C.
